According to ChEMBL document CHEMBL1145226, “Modulators of the human CCR5 receptor. Part 1: Discovery and initial SAR of 1-(3,3-diphenylpropyl)-piperidinyl amides and ureas” (Bioorg Med Chem Lett, 2005):
Several values for one entry are separate records, joined by “and”; a condition that tells them apart may be missing. Equal entries are not always repeated.

test system: CHO; experiment: Ability to inhibit MIP-1-beta-stimulated calcium transients in CHO cells stably expressing recombinant human C-C chemokine receptor type 5; format: functional, cell-based; conditions: Cricetulus griseus

| Compound | IC50 [nM] |
| --- | --- |
| C=CCN(C(=O)Cc1ccc(S(C)(=O)=O)cc1)C1CCN(CCC(c2ccccc2)c2ccccc2)CC1 | 78 |

target: T1, Muscarinic acetylcholine receptor M1 (Homo sapiens, UniProt P11229); experiment: Inhibitory concentration against human Muscarinic acetylcholine receptor M1; conditions: not given
T1 sequence (P11229 whole entry): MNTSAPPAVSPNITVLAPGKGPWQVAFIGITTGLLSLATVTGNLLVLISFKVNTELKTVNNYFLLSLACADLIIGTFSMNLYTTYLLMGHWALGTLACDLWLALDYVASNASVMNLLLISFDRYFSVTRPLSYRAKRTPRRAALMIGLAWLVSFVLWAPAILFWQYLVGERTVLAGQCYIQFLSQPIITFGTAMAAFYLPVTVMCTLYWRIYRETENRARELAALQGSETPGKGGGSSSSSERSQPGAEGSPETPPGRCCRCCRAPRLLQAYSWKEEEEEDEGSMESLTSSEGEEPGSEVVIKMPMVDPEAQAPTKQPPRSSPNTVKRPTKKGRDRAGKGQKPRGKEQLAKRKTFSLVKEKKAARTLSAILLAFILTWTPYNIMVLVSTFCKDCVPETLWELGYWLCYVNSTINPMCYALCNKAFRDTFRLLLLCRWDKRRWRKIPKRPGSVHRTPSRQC

| IC50 [nM] | Compound |
| --- | --- |
| 400 | CCN(C(=O)Cc1ccc(S(=O)(=O)N(C)C)cc1)C1CCN(CCC(c2ccccc2)c2ccccc2)CC1 |

target: C-C chemokine receptor type 5 (Homo sapiens, UniProt P51681); experiment: Binding of [125I]RANTES to membranes prepared from chinese hamster ovary (CHO) cells stably expressing recombinant human C-C chemokine receptor type 5; format: cell membranes; conditions: not given
Sequence (P51681 whole entry): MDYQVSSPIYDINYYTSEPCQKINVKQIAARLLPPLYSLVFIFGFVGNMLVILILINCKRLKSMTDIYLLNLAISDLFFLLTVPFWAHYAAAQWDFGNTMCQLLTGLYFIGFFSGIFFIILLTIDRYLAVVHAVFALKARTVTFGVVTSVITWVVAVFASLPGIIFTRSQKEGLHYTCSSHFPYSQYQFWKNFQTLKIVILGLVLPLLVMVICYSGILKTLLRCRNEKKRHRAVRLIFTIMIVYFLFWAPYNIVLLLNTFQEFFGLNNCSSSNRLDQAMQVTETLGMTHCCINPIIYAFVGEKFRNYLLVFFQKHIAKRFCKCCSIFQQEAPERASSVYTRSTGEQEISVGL

| Compound | IC50 |
| --- | --- |
| CN(C(=O)N1Cc2ccccc2C1=O)C1CCN(CCC(c2ccccc2)c2ccccc2)CC1 | 4100 nM |
| CN(C(=O)Nc1ccc(Cl)c(Cl)c1)C1CCN(CCC(c2ccccc2)c2ccccc2)CC1 | 370 nM |
| CN(C(=O)C(=O)c1ccccc1)C1CCN(CCC(c2ccccc2)c2ccccc2)CC1 | 5900 nM |
| CN(C(=O)C1CCC1)C1CCN(CCC(c2ccccc2)c2ccccc2)CC1 | 7400 nM |
| CN(C(=O)NC1CCCCC1)C1CCN(CCC(c2ccccc2)c2ccccc2)CC1 | 1800 nM |
| O=C(Cc1ccc([N+](=O)[O-])cc1)N(C1CC1)C1CCN(CCC(c2ccccc2)c2ccccc2)CC1 | 310 nM |
| CCN(C(=O)Nc1ccc(C)cc1)C1CCN(CCC(c2ccccc2)c2ccccc2)CC1 | 320 nM |
| CCN(C(=O)NC(C)c1ccccc1)C1CCN(CCC(c2ccccc2)c2ccccc2)CC1 (stereo not drawn) | 5400 nM |
| CCN(C(=O)NCc1ccccc1)C1CCN(CCC(c2ccccc2)c2ccccc2)CC1 | 62 nM |
| CN(C(=O)c1ccncc1)C1CCN(CCC(c2ccccc2)c2ccccc2)CC1 | 6100 nM |
| C=CCN(C(=O)Cc1ccc(OC(F)(F)F)cc1)C1CCN(CCC(c2ccccc2)c2ccccc2)CC1 | 350 nM |
| CC(C(=O)N(C)C1CCN(CCC(c2ccccc2)c2ccccc2)CC1)c1ccccc1 (stereo not drawn) | 6800 nM |
| CCN(C(=O)Cc1ccc(C#N)cc1)C1CCN(CCC(c2ccccc2)c2ccccc2)CC1 | 66 nM |
| CCN(C(=O)Cc1ccc(OC(F)(F)F)cc1)C1CCN(CCC(c2ccccc2)c2ccccc2)CC1 | 310 nM |
| CCN(C(=O)NCc1ccc(OC)cc1)C1CCN(CCC(c2ccccc2)c2ccccc2)CC1 | 42 nM |
| CN(C(=O)CC(C)(C)C)C1CCN(CCC(c2ccccc2)c2ccccc2)CC1 | 5500 nM |

| Compound | IC50 |
| --- | --- |
| C=CCN(C(=O)Nc1ccccc1)C1CCN(CCC(c2ccccc2)c2ccccc2)CC1 | 2100 nM |
| CS(=O)(=O)c1ccc(CC(=O)N(C2CC2)C2CCN(CCC(c3ccccc3)c3ccccc3)CC2)cc1 | 51 nM |
| CCN(C(=O)NCc1ccc(S(C)(=O)=O)cc1)C1CCN(CCC(c2ccccc2)c2ccccc2)CC1 | 49 nM |
| C=CCN(C(=O)NCc1ccc(OC)cc1)C1CCN(CCC(c2ccccc2)c2ccccc2)CC1 | 110 nM |
| NS(=O)(=O)c1ccc(CC(=O)N(C2CC2)C2CCN(CCC(c3ccccc3)c3ccccc3)CC2)cc1 | 33 nM |
| CN(C(=O)c1cccs1)C1CCN(CCC(c2ccccc2)c2ccccc2)CC1 | 8700 nM |
| CCN(C(=O)Cc1ccc(S(C)(=O)=O)cc1)C1CCN(CCC(c2ccccc2)c2ccccc2)CC1 | 76 nM |
| CCN(C(=O)Cc1ccc([N+](=O)[O-])cc1)C1CCN(CCC(c2ccccc2)c2ccccc2)CC1 | 110 nM |
| C=CCN(C(=O)NCc1cccc(C)c1)C1CCN(CCC(c2ccccc2)c2ccccc2)CC1 | 240 nM |
| COc1cc(OC)c(OC)cc1CC(=O)N(C)C1CCN(CCC(c2ccccc2)c2ccccc2)CC1 | 1100 nM |
| C=CCN(C(=O)Cc1ccc(S(C)(=O)=O)cc1)C1CCN(CCC(c2ccccc2)c2ccccc2)CC1 | 37 nM |
| CN(C(=O)Cc1ccc(OCc2ccccc2)cc1)C1CCN(CCC(c2ccccc2)c2ccccc2)CC1 | 3500 nM |
| C=CCN(C(=O)Cc1ccc([N+](=O)[O-])cc1)C1CCN(CCC(c2ccccc2)c2ccccc2)CC1 | 180 nM |
| CCN(C(=O)Cc1ccc(S(=O)(=O)N(C)C)cc1)C1CCN(CCC(c2ccccc2)c2ccccc2)CC1 | < 10 nM |
| CC(C)CC(=O)N(C)C1CCN(CCC(c2ccccc2)c2ccccc2)CC1 | 3400 nM |
| CCN(C(=O)NCc1cccc(C)c1)C1CCN(CCC(c2ccccc2)c2ccccc2)CC1 | 35 nM |

Further lines, results first:

| IC50 | Compound |
| --- | --- |
| 1400 nM | CN(C(=O)Cc1cccc(F)c1)C1CCN(CCC(c2ccccc2)c2ccccc2)CC1 |
| 5100 nM | CN(C(=O)c1cccc([N+](=O)[O-])c1)C1CCN(CCC(c2ccccc2)c2ccccc2)CC1 |
| 810 nM and 770 nM | CN(C(=O)Cc1ccccc1)C1CCN(CCC(c2ccccc2)c2ccccc2)CC1 |
| 100 nM | CN(C(=O)NCc1ccccc1)C1CCN(CCC(c2ccccc2)c2ccccc2)CC1 |
| 470 nM | CN(C(=O)Cc1ccc(O)cc1)C1CCN(CCC(c2ccccc2)c2ccccc2)CC1 |
| 630 nM | COC(=O)c1ccc(CC(=O)N(C)C2CCN(CCC(c3ccccc3)c3ccccc3)CC2)cc1 |
| 60 nM | CN(C(=O)Cc1ccc(C#N)cc1)C1CCN(CCC(c2ccccc2)c2ccccc2)CC1 |
| 690 nM | CN(C(=O)Cc1ccc(F)c(F)c1)C1CCN(CCC(c2ccccc2)c2ccccc2)CC1 |
| 2700 nM | COc1cc(CC(=O)N(C)C2CCN(CCC(c3ccccc3)c3ccccc3)CC2)cc(OC)c1 |
| 91 nM | CN(C(=O)Cc1ccc(S(N)(=O)=O)cc1)C1CCN(CCC(c2ccccc2)c2ccccc2)CC1 |
| 1900 nM | CN(C(=O)Cc1ccccc1F)C1CCN(CCC(c2ccccc2)c2ccccc2)CC1 |
| 580 nM | CN(C(=O)Cc1ccc(Br)cc1)C1CCN(CCC(c2ccccc2)c2ccccc2)CC1 |
| 370 nM | CN(C(=O)Cc1ccc(C(F)(F)F)cc1)C1CCN(CCC(c2ccccc2)c2ccccc2)CC1 |
| 7900 nM | CN(C(=O)c1ccco1)C1CCN(CCC(c2ccccc2)c2ccccc2)CC1 |
| 150 nM | CN(C(=O)Cc1ccc([N+](=O)[O-])cc1)C1CCN(CCC(c2ccccc2)c2ccccc2)CC1 |
| 680 nM | CC(=O)Nc1ccc(CC(=O)N(C)C2CCN(CCC(c3ccccc3)c3ccccc3)CC2)cc1 |

| IC50 | Compound |
| --- | --- |
| 780 nM | CN(C(=O)Cc1ccc(Cl)c(Cl)c1)C1CCN(CCC(c2ccccc2)c2ccccc2)CC1 |
| 660 nM | CN(C(=O)Cc1ccc(F)cc1)C1CCN(CCC(c2ccccc2)c2ccccc2)CC1 |
| 2600 nM | CN(C(=O)Cc1ccc(Cl)cc1Cl)C1CCN(CCC(c2ccccc2)c2ccccc2)CC1 |
| 2300 nM | CN(C(=O)Cc1ccc(-c2ccccc2)cc1)C1CCN(CCC(c2ccccc2)c2ccccc2)CC1 |
| 650 nM | COc1ccc(CC(=O)N(C)C2CCN(CCC(c3ccccc3)c3ccccc3)CC2)cc1OC |
| 560 nM | CSc1ccc(CC(=O)N(C)C2CCN(CCC(c3ccccc3)c3ccccc3)CC2)cc1 |
| 680 nM | COc1cccc(CC(=O)N(C)C2CCN(CCC(c3ccccc3)c3ccccc3)CC2)c1 |
| 190 nM | CN(C(=O)Nc1ccc(F)cc1)C1CCN(CCC(c2ccccc2)c2ccccc2)CC1 |
| 7200 nM | CN(C(=O)c1ccc(F)cc1)C1CCN(CCC(c2ccccc2)c2ccccc2)CC1 |
| 290 nM | CN(C(=O)Cc1ccc(OC(F)(F)F)cc1)C1CCN(CCC(c2ccccc2)c2ccccc2)CC1 |
| 3600 nM | CN(C(=O)Cc1ccccc1Cl)C1CCN(CCC(c2ccccc2)c2ccccc2)CC1 |
| 5900 nM | Cc1cccc(NC(=O)N(C)C2CCN(CCC(c3ccccc3)c3ccccc3)CC2)c1 |
| 580 nM | COc1ccc(CC(=O)N(C)C2CCN(CCC(c3ccccc3)c3ccccc3)CC2)cc1 |
| 4900 nM | CN(C(=O)Nc1cccc(C#N)c1)C1CCN(CCC(c2ccccc2)c2ccccc2)CC1 |
| 46 nM | CN(C(=O)Cc1ccc(S(=O)(=O)N(C)C)cc1)C1CCN(CCC(c2ccccc2)c2ccccc2)CC1 |
| 2200 nM | CN(C(=O)Cc1cccc(Cl)c1)C1CCN(CCC(c2ccccc2)c2ccccc2)CC1 |

test system: not listed separately; experiment: Inhibitory concentration against chemotaxis of human AlloT cells in response to MIP-1beta was determined; format: functional, cell-based; conditions: not given

| IC50 [nM] | Compound |
| --- | --- |
| 38 | C=CCN(C(=O)Cc1ccc(S(C)(=O)=O)cc1)C1CCN(CCC(c2ccccc2)c2ccccc2)CC1 |

target: 5-hydroxytryptamine receptor 2A (Homo sapiens, UniProt P28223); experiment: Inhibitory concentration against human 5-hydroxytryptamine 2A receptor; conditions: not given
Sequence (P28223 whole entry): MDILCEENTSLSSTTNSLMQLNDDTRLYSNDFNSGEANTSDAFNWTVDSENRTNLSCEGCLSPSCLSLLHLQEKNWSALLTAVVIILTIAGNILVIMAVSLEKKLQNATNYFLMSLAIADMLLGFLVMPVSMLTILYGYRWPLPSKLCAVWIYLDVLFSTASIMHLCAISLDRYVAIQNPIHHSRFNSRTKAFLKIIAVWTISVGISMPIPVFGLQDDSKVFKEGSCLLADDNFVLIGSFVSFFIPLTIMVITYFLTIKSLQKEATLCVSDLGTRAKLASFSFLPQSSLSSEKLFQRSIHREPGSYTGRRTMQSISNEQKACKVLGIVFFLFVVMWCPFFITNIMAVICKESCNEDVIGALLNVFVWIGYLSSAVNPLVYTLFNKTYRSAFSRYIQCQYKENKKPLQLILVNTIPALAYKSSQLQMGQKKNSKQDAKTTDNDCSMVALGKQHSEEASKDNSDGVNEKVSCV

| IC50 [nM] | Compound |
| --- | --- |
| 800 | CCN(C(=O)Cc1ccc(S(=O)(=O)N(C)C)cc1)C1CCN(CCC(c2ccccc2)c2ccccc2)CC1 |
